Data: patent US5192664A, “Parathyroid hypertensive factor, antibodies and uses thereof” (Pang; Peter K. T., priority 1990, dated 1993)

Tested on: Blood Pressure in SHR
Assay: Feeding of nifedipine and dietary calcium to SHR rats for 8 weeks, mean blood pressure
Type: in vivo, rat
Conditions: for Blood Pressure in SHR: nifedipine 0 mg/kg food, 8 weeks feeding
Experimental: Male rats of the SHR strain, obtained from Harlan Sprague-Dawley, 12 weeks old, were divided into groups of 12 or 24, and were fed prepared diets containing 0.2%, 0.4% and 0.8% elemental calcium, respectively. […] Distilled water was available ad lib. Feeding was continued for 8 weeks and the mean blood pressure of each animal was determined at the end of that time.

[Ca] [Calcium]
decrease in blood pressure (4 times the amount of ordinary dietary calcium, no nifedipine): measurable, but small
Blood Pressure in SHR (dietary calcium 0.4%): 164 ± 6 mm Hg
Blood Pressure in SHR (dietary calcium 0.8%): 169 ± 6 mm Hg
